The subject of one test is Botrytis cinerea mycelia. Put plainly: Photodynamic inhibition of Botrytis cinerea mycelia, percentage of dead samples after 7 days on agar. The test is classed as cell-based. As for the experimental part:
In the experiments, Botrytis cinerea mycelia were grown in liquid medium for 48 hours. Small spheres of the mycelia (average diameter 2 mm) were incubated for 100 minutes with Mg-Chlorophyllin with or without 5 mM Disodium-EDTA. Samples were illuminated with 395 nm (fluence 106.6 J cm^−2) for 120 minutes and the radial growth of mycelial patches after 7 days on agar medium was measured. A sample was considered dead, if there was no growth observable after 7 days on agar plates.
In the experiments, Botrytis cinerea mycelia were grown in liquid medium for 48 hours. Small spheres of the mycelia (average diameter 2 mm) were incubated for 100 minutes with Mg-Chlorophyllin with or without 5 mM EDTA (calcium or disodium). Samples were illuminated with 395 nm (fluence 106.6 J cm^−2) for 120 min and the radial growth of mycelial patches after 7 days on agar medium was measured. A sample was considered dead, if there was no growth observable after 7 days on agar plates.
In the experiments, Botrytis cinerea mycelia were grown in liquid medium for 48 hours. Small spheres of the mycelia (average diameter 2 mm) were incubated for 100 minutes with Mg-Chlorophyllin with or without Baypure DS100 Samples were illuminated with 395 nm (fluence 106.6 J cm^−2) for 120 min and the radial growth of mycelial patches after 7 days on agar medium was measured. A sample was considered dead, if there was no growth observable after 7 days on agar plates.
The protocol for the PDI of B. cinerea was as follows (for experiments 3 and 4 described above): • Grow B. cinerea on malt-peptone-agar for some days. • Transfer spores of B. cinerea to liquid malt-peptone medium. • Incubate for 2-3 days at 26° C. under constant agitation. • Transfer the grown mycelia (spheres of mycelia, approximately 2 mm diameter) to 24 well plates. • Add 500 μl of the PS to the well. • Incubate under agitation for 100 minutes in the dark. • Illuminate under agitation for 120 minutes. • Transfer the treated mycelia to malt-peptone-agar plates and incubate for one week at room temperature. • Evaluate by counting of dead samples.

Test [1] has as its system Alternaria solani mycelia. The test can be described thus: Photodynamic inhibition of Alternaria solani mycelia, percentage of dead samples after 7 days on agar. Format: cell-based. As for the experimental part: In the experiments, Alternaria solani mycelia were grown in liquid medium for 24 hours. Small spheres of the mycelia (average diameter 2 mm) were incubated for 100 minutes with 100 μM of Mg-Chlorophyllin with 0 to 5 mM of Disodium-EDTA. Samples were illuminated with 395 nm (fluence 106.6 J cm^−2) for 120 mins and the radial growth of mycelial patches after 7 days on agar medium was measured. A sample was considered dead, if there was no growth observable after 7 days on agar plates.
In the experiments, Alternaria solani mycelia were grown in liquid medium for 24 hours. Small spheres of the mycelia (average diameter 2 mm) were incubated for 100 minutes with Chlorin E6 with or without 5 mM of disodium-EDTA. Samples were illuminated with 395 nm (fluence 106.6 J cm^−2) for 120 mins and the radial growth of mycelial patches after 7 days on agar medium was measured. A sample was considered dead, if there was no growth observable after 7 days on agar plates.
The protocol for the PDI of A. solani was as follows (for Experiment 2 and 5): • Grow A. solani on tomato-agar for some days. • Transfer parts of the growing mycelium form the edge of the A. solani (no conidia) to liquid tomato medium. • Incubate overnight at 26° C. under constant agitation. • Transfer the grown mycelia (spheres of mycelia, approximately 2 mm in diameter) to 24 well plates. • Add 500 microlitres of the PS to the well (PBS for the Co and light only controls). • Incubate under agitation for 100 minutes. • Illuminate under agitation for 120 minutes. • Transfer the treated mycelia to tomato-agar plates and incubate for one week at room temperature. • Evaluate by counting of dead samples.

Results on 2 compounds are retold here after patent US20200253211A1, “PHOTODYNAMIC INHIBITION OF MICROBIAL PATHOGENS IN PLANTS” (SUNCOR ENERGY INC, priority 2017, published 2020).

Consider `O=C(O)CN(CCN(CC(=O)O)CC(=O)O)CC(=O)O` [EDTA, disodium EDTA], for which the dead % in the test on Botrytis cinerea mycelia (Table 3, EDTA 5 mM alone, in dark) was 0%; with Botrytis cinerea mycelia (Table 3, EDTA 5 mM alone, with light), 0%; in the test on Botrytis cinerea mycelia (Table 4, EDTA-Na 5 mM alone, with light) it was 0%; in test [1] (Table 2, EDTA 5 mM alone, in light), 0%; in test [1] (Table 2, EDTA 5 mM alone, no light) it was 0%; in test [1] (Table 2, EDTA 50 mM alone, in light), 0%. Also, the dead % is reported as 0% in test [1] (Table 2, EDTA 50 mM alone, no light); 0% in test [1] (Table 2, EDTA 100 mM alone, in light); 11.1% in test [1] (Table 2, EDTA 100 mM alone, no light); 0% in test [1] (Table 2, EDTA 500 mM alone, in light); 11.1% in test [1] (Table 2, EDTA 500 mM alone, no light); 0% in test [1] (Table 5, light, 5 mM Na-EDTA alone). The same compound had a dead % in test [1] (Table 5, no light, 5 mM Na-EDTA alone) of 0%.
As for `C=Cc1c(C)c2cc3nc(c(CC(=O)[O-])c4[n-]c(cc5nc(cc1[n-]2)C(C)=C5CC)c(C)c4C(=O)[O-])C(CCC(=O)[O-])C3C.[Mg+2].[Na+].[Na+].[Na+]` (stereo not drawn) [Mg-Chlorophyllin, Mg-chlorophyllin], the dead % was determined as 0% in the test with Botrytis cinerea mycelia (Table 3, Mg-Chlorophyllin 10 μM alone, in light); 0% with Botrytis cinerea mycelia (Table 3, Mg-Chlorophyllin 100 μM alone, in light); 0% in the test with Botrytis cinerea mycelia (Table 4, Mg-Chlorophyllin 100 μM alone, in light); 11.5% in test [1] (Table 2, Mg-Chlorophyllin 100 μM without EDTA, in light). Moreover, the “Percentage of dead samples [%]” value in the test with Botrytis cinerea mycelia (Table 27, MgChln 100 μM, with light) worked out at 0%.
